Patent US8957012B2, “Gamma secretase inhibitor for treatment of herpesvirus infection” (The Trustees of the University of Pennsylvania, priority 2006, dated 2015)
“Also recorded” adds a separate entry of the source.

Assays:
BCBL1 cells [1] = experiment: CFSE staining of mitotic activity by FACS; format: cell-based; settings: 20 μM, 48 h, vs untreated cells
Protocol: (§1) Each cell type (100,000 cells) was cultured in RPMI 1640 with 5% BGS. At each time point, cells were stained with trypan blue and counted. The results represent three independent experiments. (B) CFSE staining showing mitosis of DG75 (left panel) and BCBL1 (right panel) cells. Five million cells were cultured in RPMI 1640 with 5% BGS and mock treated (red curves) or treated with γ-secretase inhibitor at 20 μM (blue curves). At 48 h post treatment, cells were harvested for FACS analysis to determine mitotic activity. Gray and black curves represent negative and positive controls, respectively. The negative control was non-CFSE-staining cells, and the positive control was CFSE-staining but immediately fixed cells. (C) 7AAD staining analysis of mock treated (left panel) and KSHV-infected (right panel) primary B cells. Two million primary B cells were mock treated or KSHV infected for 4 weeks and harvested for 7AAD staining. The percentages of dead and necrotic cells are shown. (D) Four-week KSHV-infected primary B cells were harvested and mock treated (left panel) or treated with γ-secretase inhibitor (right panel) for 5 days, and then cells were stained with 7AAD for FACS analysis.
(§2) As was mentioned previously, aberrant Notch signaling is highly associated with oncogenesis. […] Cells stained with CFSE followed by treatment with the γ-secretase inhibitor for 48 h were monitored by FACS.

DG75 cells [2] = experiment: CFSE staining of mitotic activity by FACS; format: cell-based; settings: 20 μM, 48 h, treated vs untreated
Protocol: as §1, §2

BCBL1 cells [3] = experiment: SCID mouse model of KSHV infected B lymphoma; settings: listed as GSI
BCBL1 cells [4] = experiment: Cell proliferation, trypan blue counting; format: cell-based; settings: KSHV-positive cells; RPMI 1640 with 5% BGS; trypan blue counts
Protocol: as §1, §2

DG75 cells [5] = experiment: Cell proliferation, trypan blue counting; format: cell-based; settings: KSHV-negative cells; RPMI 1640 with 5% BGS; trypan blue counts
Protocol: as §1, §2

[6] = test system: KSHV-infected primary B cells; experiment: 7AAD staining FACS analysis of cell death; format: cell-based; settings: 4-week KSHV Bac36-infected primary B cells; treated 5 days; mock-treated 21.2%
[7] = test system: cyclin D1 in KSHV-positive cells; experiment: Western blot of cyclin D1 levels; settings: KSHV-positive cells treated with inhibitor
BCBL1 cells [8] = experiment: Cell cycle distribution, propidium iodide FACS; format: cell-based; settings: 48 h post treatment
Protocol: (§3) At 48 h post treatment, cells were harvested, fixed, and stained with propidium iodide. M2, M3, and M4 represent the G1, S, and G2/M populations of cells, respectively. M1 and M5 represent hypo- and hypernucleated cells, respectively. The percentage of cells in each different phase is indicated. Western blot analysis indicates the ICN levels in γ-secretase inhibitor-treated DG75 cells or BCBL1 cells. The relative density (RD) of ICN in each sample is also shown.
(§4) As was shown in the above Examples; a γ-secretase inhibitor can dramatically slow down proliferation of the KSHV-positive BCBL1 cell line.

DG75 cells [9] = experiment: Cell cycle distribution, propidium iodide FACS; format: cell-based; settings: 48 h post treatment
Protocol: as §3, §4

[10] = test system: Notch1 ICN in BCBL1 cells; experiment: Western blot of ICN levels; format: cell-based; settings: BCBL1 cells treated with inhibitor
Protocol: as §3, §4

[11] = test system: KSHV-GFP Bac36 recombinant virus in Vero cells; format: cell-based
KSHV in BCBL1 cells = format: cell-based

Structure (SMILES) | mitotic activity (CFSE) (BCBL1 cells [1]) | mitotic activity (CFSE) (DG75 cells [2]) | survival time of mice (BCBL1 cells [3]; SCID mice with BCBL1, 30 mg/kg daily, vs saline control) | progression of the tumor / formation of tumor and ascites (BCBL1 cells [3]; SCID mice, 10 million BCBL1 cells i.p., 30 mg/kg i.p. daily, vs saline, 30 mg/kg) | histopathology of BCBL1 tumor cells (BCBL1 cells [3]; tumor tissue of treated mice, vs saline mock treated) | proliferation of BCBL1 cells (BCBL1 cells [4]) | proliferation of DG75 cells (DG75 cells [5]) | cells that had undergone death (7AAD positive) [6] | cyclin D1 levels (Western blot) [7] | more cells arrested at G1 phase than mock-treated (BCBL1 cells [8]) | changes in G1 phase of the cell cycle (DG75 cells [9]) | ICN levels (Western blot) [10] | GFP signals in cells infected with supernatant (FACS) [11] | RTA expression (Western blot) (KSHV in BCBL1 cells) | production of infectious virions in supernatant (KSHV in BCBL1 cells)
C[C@H](NC(=O)Cc1cc(F)cc(F)c1)C(=O)N[C@H](C(=O)OC(C)(C)C)c1ccccc1 [γ-secretase inhibitor, N—[N-(3,5-difluorophenacetyl-L-alanyl)]-S-phenylglycine t-butyl ester] | dramatically decreased | relatively unchanged | significantly prolong; also recorded: significantly increase | greatly slow down; also recorded: greatly delayed | necrosis and apoptosis; also recorded: a lot of necrotic and apoptotic cells | dramatically slowed | minimally affected | about 45.4% | depressed | approximately 30% | no significant changes | decreased |  |  | 
CCCCCCCCCCCCCC(=O)O[C@@H]1[C@@H](C)[C@@]2(O)[C@@H](C=C(CO)C[C@]3(O)C(=O)C(C)=C[C@@H]23)[C@@H]2C(C)(C)[C@]12OC(C)=O [TPA, tetradecanoyl phorbol acetate] |  |  |  |  |  |  |  |  |  |  |  |  | GFP signals were detected | strongly expressed | infectious virions were produced
